Measured values published in PubChem BioAssay (NCI).
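Values below derive from 48-hour exposures of cells grown in 96-well plates, with endpoints linearly interpolated between the two concentrations bracketing the appropriate inhibition level. TGI: total growth inhibition.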

How the values were obtained:
Experiment in all cases: inhibition of tumour cell growth, NCI panel, 48 h
A549 NSCLC = system: A549 NSCLC
IGROV1 ovarian = system: IGROV1 ovarian
NCI-H522 lung = system: NCI-H522 lung
RPMI-8226 leukemia = system: RPMI-8226 leukemia
RXF-631 renal = system: RXF-631 renal
SF-539 CNS = system: SF-539 CNS
SK-MEL-5 melanoma = system: SK-MEL-5 melanoma
SNB-78 CNS = system: SNB-78 CNS
XF 498 CNS = system: XF 498 CNS
A498 renal = system: A498 renal
HL-60(TB) leukemia = system: HL-60(TB) leukemia
MCF7 breast = system: MCF7 breast
MDA-MB-231 breast = system: MDA-MB-231 breast
MDA-N = system: MDA-N
NCI/ADR-RES ovarian = system: NCI/ADR-RES ovarian
PC-3 prostate = system: PC-3 prostate
UACC-257 melanoma = system: UACC-257 melanoma
DLD-1 colon = system: DLD-1 colon
DMS 114 small cell lung = system: DMS 114 small cell lung
HT29 colon = system: HT29 colon

CCCOC(=O)CCC(NC(=O)c1ccc(Nc2nc3ccccc3nc2-c2cccs2)cc1)C(=O)OCCC (stereo not drawn)
TGI (A549 NSCLC): > 100 µM | TGI (IGROV1 ovarian): > 100 µM | TGI (NCI-H522 lung): > 100 µM | TGI (RPMI-8226 leukemia): > 100 µM | TGI (RXF-631 renal): > 100 µM | TGI (SF-539 CNS): > 100 µM | TGI (SK-MEL-5 melanoma): > 100 µM | TGI (SNB-78 CNS): > 100 µM | TGI (XF 498 CNS): > 100 µM

CN(C)CCCn1c(-c2ccc(Br)cc2)csc1=Nc1ccccc1
TGI (A498 renal): 28.3 µM | TGI (A549 NSCLC): 48.9 µM | TGI (HL-60(TB) leukemia): > 100 µM | TGI (MCF7 breast): 54 µM | TGI (MDA-MB-231 breast): > 100 µM | TGI (MDA-N): > 100 µM | TGI (NCI/ADR-RES ovarian): 35.7 µM | TGI (PC-3 prostate): 25.2 µM | TGI (RPMI-8226 leukemia): 44.4 µM | TGI (SF-539 CNS): 34 µM | TGI (UACC-257 melanoma): 29.8 µM

CC/C(CC(=O)CCC(=O)Nc1ccc(C)c(C)c1)=N\NC(=O)c1cc2ccccc2cc1O
TGI (DLD-1 colon): > 100 µM | TGI (DMS 114 small cell lung): > 100 µM | TGI (HL-60(TB) leukemia): 8.68 µM | TGI (HT29 colon): > 100 µM | TGI (IGROV1 ovarian): 57.5 µM | TGI (RXF-631 renal): > 100 µM | TGI (SNB-78 CNS): > 100 µM | TGI (UACC-257 melanoma): > 100 µM
